The IC50 is the concentration that gives 50% inhibition. Read a low IC50 as greater potency in that assay.

This note sets out measurements from US20170107229A1, “SUBSTITUTED TETRAHYDROPYRIDOTHIENOPYRIMIDINES” (BAYER PHARMA AKTIENGESELLSCHAFT, priority 2014, published 2017).

In the experiment the target is T1, human full-length MKNK1 (Homo sapiens, UniProt Q9BUB5, T385D).
T1 construct: GST (N); purchased Carna Biosciences 02-145; host or cells: insect cells (baculovirus expression system)
T1 sequence (Q9BUB5 1-424 isoform Q9BUB5-2 T344D): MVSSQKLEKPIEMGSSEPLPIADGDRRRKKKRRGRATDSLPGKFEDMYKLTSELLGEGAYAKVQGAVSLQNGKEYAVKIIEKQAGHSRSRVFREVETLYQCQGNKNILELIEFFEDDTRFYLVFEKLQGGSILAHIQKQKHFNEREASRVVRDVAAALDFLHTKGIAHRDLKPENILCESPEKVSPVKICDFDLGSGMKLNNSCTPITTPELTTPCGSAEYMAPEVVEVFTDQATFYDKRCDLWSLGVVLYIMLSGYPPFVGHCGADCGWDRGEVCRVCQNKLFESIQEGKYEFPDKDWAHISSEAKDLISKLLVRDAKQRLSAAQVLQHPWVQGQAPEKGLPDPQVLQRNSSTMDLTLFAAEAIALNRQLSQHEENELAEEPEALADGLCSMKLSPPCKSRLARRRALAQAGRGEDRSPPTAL
Kind of experiment: MKNK1 kinase high ATP assay (TR-FRET). Type of experiment: biochemical. As to conditions: high ATP (2 mM final), 15 min preincubation with enzyme, GST-MKNK1 (T344D). Summed up: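 GST-tagged human full-length MKNK1 (T344D), insect-cell expressed, preincubated 15 min at 22 °C with compound, then reacted 30 min at 22 °C with 2 mM ATP and 0.06 μM biotinylated peptide (final) in HEPES pH 7.5. Phospho-peptide detected by TR-FRET (665/620 nm ratio) after EDTA stop; normalised to no-inhibitor and no-enzyme controls.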
Background: In TR-FRET formats the signal depends on donor and acceptor labels being close together.
`O=C(N1CCOCC1)N1CCc2c(sc3ncnc(Nc4ccc5[nH]ncc5c4)c23)C1` [Example 43, [4-(1H-Indazol-5-ylamino)-5,8-dihydropyrido[4′,3′:4,5]thieno[2,3-d]pyrimidin-7(6H)-yl](morpholin-4-yl)methanone]: the IC50 is 48 nM.

In turn, `CS(=O)(=O)N1CCc2c(sc3ncnc(Nc4cc5cn[nH]c5cc4Cl)c23)C1` [Example 49, N-(6-Chloro-1H-indazol-5-yl)-7-(methylsulfonyl)-5,6,7,8-tetrahydropyrido[4′,3′:4,5]thieno[2,3-d]pyrimidin-4-amine] had an IC50 of 125 nM.

Regarding `CC(C)(C)OC(=O)N1CCc2c(sc3ncnc(Nc4ccc5[nH]c(=O)sc5c4)c23)C1` [Example 3, tert-Butyl 4-[(2-oxo-2,3-dihydro-1,3-benzothiazol-6-yl)amino]-5,8-dihydropyrido[4′,3′:4,5]thieno[2,3-d]pyrimidine-7(6H)-carboxylate], the IC50 stood at 71 nM.

`O=c1[nH]c2ccc(Nc3ncnc4sc5c(c34)CCN(CCN3CCOCC3)C5)cc2s1` [Example 63, 6-({7-[2-(Morpholin-4-yl)ethyl]-5,6,7,8-tetrahydropyrido[4′,3′:4,5]thieno[2,3-d]pyrimidin-4-yl}amino)-1,3-benzothiazol-2(3H)-one] registered an IC50 of 236 nM.

The compound `COc1nc2[nH]ncc2cc1Nc1ncnc2sc3c(c12)CCN(C(=O)N1CCOCC1)C3` [Example 52, {4-[(6-Methoxy-1H-pyrazolo[3,4-b]pyridin-5-yl)amino]-5,8-dihydropyrido[4′,3′:4,5]thieno[2,3-d]pyrimidin-7(6H)-yl}(morpholin-4-yl)methanone] returned an IC50 of 13 nM.

Take `COc1cc2[nH]ncc2cc1Nc1ncnc2sc3c(c12)CCNC3` [Example 8, N-(6-Methoxy-1H-indazol-5-yl)-5,6,7,8-tetrahydropyrido[4′,3′:4,5]thieno[2,3-d]pyrimidin-4-amine]: the IC50 amounted to 13 nM.

For the compound `O=C(N1CCOCC1)N1CCc2c(sc3ncnc(Nc4cnc5[nH]ncc5c4)c23)C1` [Example 44, Morpholin-4-yl[4-(1H-pyrazolo[3,4-b]pyridin-5-ylamino)-5,8-dihydropyrido[4′,3′:4,5]thieno[2,3-d]pyrimidin-7(6H)-yl]methanone], the IC50 was 118 nM.

`CC(C)(C)OC(=O)N1CCc2c(sc3ncnc(Nc4cc5cn[nH]c5cn4)c23)C1` [Example 7, tert-Butyl 4-(1H-pyrazolo[3,4-c]pyridin-5-ylamino)-5,8-dihydropyrido[4′,3′:4,5]thieno[2,3-d]pyrimidine-7(6H)-carboxylate] came in with an IC50 of 79 nM.

Compound `COc1cc2[nH]ncc2cc1Nc1ncnc2sc3c(c12)CCN(C(=O)c1ccn(C)n1)C3` [Example 103, {4-[(6-Methoxy-1H-indazol-5-yl)amino]-5,8-dihydropyrido[4′,3′:4,5]thieno[2,3-d]pyrimidin-7(6H)-yl}(1-methyl-1H-pyrazol-3-yl)methanone] came in with an IC50 of 11 nM.

The compound `COc1cc2[nH]ncc2cc1Nc1ncnc2sc3c(c12)CCN(CC(F)(F)F)C3` [Example 12, N-(6-Methoxy-1H-indazol-5-yl)-7-(2,2,2-trifluoroethyl)-5,6,7,8-tetrahydropyrido[4′3′:4,5]thieno[2,3-d]pyrimidin-4-amine] yielded an IC50 of 99 nM.

Compound `CSc1cc2[nH]ncc2cc1Nc1ncnc2sc3c(c12)CCNC3` [Example 1, N-[6-(Methylsulfanyl)-1H-indazol-5-yl]-5,6,7,8-tetrahydropyrido[4′,3′:4,5]thieno[2,3-d]pyrimidin-4-amine] gave an IC50 of 24 nM.

`COc1cc2[nH]ncc2cc1Nc1ncnc2sc3c(c12)CCN(C(=O)c1ccno1)C3` [Example 102, {4-[(6-Methoxy-1H-indazol-5-yl)amino]-5,8-dihydropyrido[4′,3′:4,5]thieno[2,3-d]pyrimidin-7(6H)-yl}(1,2-oxazol-5-yl)methanone] displayed an IC50 of 5 nM.

For the compound `CC(C)(C)OC(=O)N1CCc2c(sc3ncnc(Nc4cc5cn[nH]c5cc4Br)c23)C1` [Example 25, tert-Butyl 4-[(6-bromo-1H-indazol-5-yl)amino]-5,8-dihydropyrido[4′,3′:4,5]thieno[2,3-d]pyrimidine-7(6H)-carboxylate], the IC50 was found to be 31 nM.

In turn, `COc1cc2[nH]ncc2cc1Nc1ncnc2sc3c(c12)CCN(C(=O)CCCS(C)(=O)=O)C3` [Example 9, 1-{4-[(6-Methoxy-1H-indazol-5-yl)amino]-5,8-dihydropyrido[4′,3′:4,5]thieno[2,3-d]pyrimidin-7(6H)-yl}-4-(methylsulfonyl)butan-1-one] registered an IC50 of 2 nM.

`COc1cc2[nH]ncc2cc1Nc1ncnc2sc3c(c12)CCN(CCN1CCOCC1)C3` [Example 62, N-(6-Methoxy-1H-indazol-5-yl)-7-[2-(morpholin-4-yl)ethyl]-5,6,7,8-tetrahydropyrido[4′,3′:4,5]thieno[2,3-d]pyrimidin-4-amine] displayed an IC50 of 9 nM.

Regarding `CN(C)C(=O)N1CCc2c(sc3ncnc(Nc4cc5cn[nH]c5cc4Br)c23)C1` [Example 29, 4-[(6-Bromo-1H-indazol-5-yl)amino]-N,N-dimethyl-5,8-dihydropyrido[4′,3′:4,5]thieno[2,3-d]pyrimidine-7(6H)-carboxamide], half-maximal inhibition (IC50) was put at 37 nM.

Take `CN1CCC(C(=O)N2CCc3c(sc4ncnc(Nc5ccc6[nH]ncc6c5)c34)C2)CC1` [Example 69, [4-(1H-Indazol-5-ylamino)-5,8-dihydropyrido[4′,3′:4,5]thieno[2,3-d]pyrimidin-7(6H)-yl](1-methylpiperidin-4-yl)methanone]: the 50% inhibitory concentration (IC50) was determined as 16 nM.

In the case of `CN(C)C(=O)N1CCc2c(sc3ncnc(Nc4ccc5[nH]c(=O)sc5c4)c23)C1` [Example 17, N,N-Dimethyl-4-[(2-oxo-2,3-dihydro-1,3-benzothiazol-6-yl)amino]-5,8-dihydropyrido[4′,3′:4,5]thieno[2,3-d]pyrimidine-7(6H)-carboxamide], the IC50 was 88 nM.

Take `COc1nc2[nH]ncc2cc1Nc1ncnc2sc3c(c12)CCNC3` [Example 45, N-(6-Methoxy-1H-pyrazolo[3,4-b]pyridin-5-yl)-5,6,7,8-tetrahydropyrido[4′,3′:4,5]thieno[2,3-d]pyrimidin-4-amine]: the IC50 came out at 87 nM.

The compound `COc1cc2[nH]ncc2cc1Nc1ncnc2sc3c(c12)CCN(C(=O)C1CCCC1)C3` [Example 91, Cyclopentyl{4-[(6-methoxy-1H-indazol-5-yl)amino]-5,8-dihydropyrido[4′,3′:4,5]thieno[2,3-d]pyrimidin-7(6H)-yl}methanone] yielded an IC50 of 3 nM.

`COc1cc2[nH]ncc2cc1Nc1ncnc2sc3c(c12)CCN(Cc1ncon1)C3` [Example 80, N-(6-Methoxy-1H-indazol-5-yl)-7-(1,2,4-oxadiazol-3-ylmethyl)-5,6,7,8-tetrahydropyrido[4′,3′:4,5]thieno[2,3-d]pyrimidin-4-amine] displayed an IC50 of 17 nM.

As to `COc1cc2[nH]ncc2cc1Nc1ncnc2sc3c(c12)CCN(C(=O)c1cnc[nH]1)C3` [Example 75, 1H-Imidazol-5-yl{4-[(6-methoxy-1H-indazol-5-yl)amino]-5,8-dihydropyrido[4′,3′:4,5]thieno[2,3-d]pyrimidin-7(6H)-yl}methanone], the IC50 is 6 nM.

On to `CS(=O)(=O)N1CCc2c(sc3ncnc(Nc4cc5cn[nH]c5cn4)c23)C1` [Example 23, 7-(Methylsulfonyl)-N-(1H-pyrazolo[3,4-c]pyridin-5-yl)-5,6,7,8-tetrahydropyrido[4′,3′:4,5]thieno[2,3-d]pyrimidin-4-amine], for which the IC50 is 25 nM.

As to `CC(C)(C)OC(=O)N1CCc2c(sc3ncnc(Nc4cnc5[nH]ncc5c4)c23)C1` [Example 6, tert-Butyl 4-(1H-pyrazolo[3,4-b]pyridin-5-ylamino)-5,8-dihydropyrido[4′,3′:4,5]thieno[2,3-d]pyrimidine-7(6H)-carboxylate], the IC50 was 47 nM.

Consider `COc1cc2[nH]ncc2cc1NCCN(C)C(=O)N1CCc2c(sc3ncnc(Nc4cc5cn[nH]c5cc4OC)c23)C1` [Example 82, 4-[(6-Methoxy-1H-indazol-5-yl)amino]-N-{2-[(6-methoxy-1H-indazol-5-yl)amino]ethyl}-N-methyl-5,8-dihydropyrido[4′,3′:4,5]thieno[2,3-d]pyrimidine-7(6H)-carboxamide], for which it took 48 nM to reach half-maximal inhibition (IC50).

Consider `COc1cc2[nH]ncc2cc1Nc1ncnc2sc3c(c12)CCN(C(=O)c1cocn1)C3` [Example 81, {4-[(6-Methoxy-1H-indazol-5-yl)amino]-5,8-dihydropyrido[4′,3′:4,5]thieno[2,3-d]pyrimidin-7(6H)-yl}(1,3-oxazol-4-yl)methanone], for which the IC50 was 5 nM.

The compound `CN(C)C(=O)N1CCc2c(sc3ncnc(Nc4ccc5[nH]ncc5c4)c23)C1` [Example 15, 4-(1H-Indazol-5-ylamino)-N,N-dimethyl-5,8-dihydropyrido[4′,3′:4,5]thieno[2,3-d]pyrimidine-7(6H)-carboxamide] showed an IC50 of 32 nM.

Turning to `CC(C)C(=O)N1CCc2c(sc3ncnc(Nc4cc5cn[nH]c5cn4)c23)C1` [Example 20, 2-Methyl-1-[4-(1H-pyrazolo[3,4-c]pyridin-5-ylamino)-5,8-dihydropyrido[4′,3′:4,5]thieno[2,3-d]pyrimidin-7(6H)-yl]propan-1-one], the IC50 came out at 28 nM.

Regarding `CSc1cc2[nH]ncc2cc1Nc1ncnc2sc3c(c12)CCN(C(=O)OC(C)(C)C)C3` [Example 2, tert-Butyl 4-{[6-(methylsulfanyl)-1H-indazol-5-yl]amino}-5,8-dihydropyrido[4′,3′:4,5]thieno[2,3-d]pyrimidine-7(6H)-carboxylate], it took 16 nM to reach half-maximal inhibition (IC50).
